{"source": "patent US7879371B2", "about": "(priority 2002, dated 2011)", "origin": "cited, not measured here", "key": {"[1]": {"tested_on": "A. tumefaciens vir genes, strain A348 (pSM243cd)", "settings": "for vir gene induction efficiency versus corresponding phenolic acids: strain A348 (pSM243cd), only above 100 μM"}, "[2]": {"tested_on": "A. tumefaciens nopaline type strains T37 and C58"}, "[3]": {"tested_on": "A. tumefaciens str. A348 (pSM358) virE::lacZ"}, "[4]": {"settings": "cultures of strains C58F and T37"}}, "note": "Read-outs that look alike come from different tables or passages of the source.", "data": [{"smiles": "CCNC(=O)c1cc(OC)c(O)c(OC)c1", "note": "[ethylsyringamide]", "values": [{"measurement": "vir gene induction activity versus acetosyringone", "setting": "[1]; concentrations above 1 mM", "value": "higher activity than acetosyringone"}]}, {"smiles": "COc1cc(C=O)cc(OC)c1O", "note": "[syringaldehyde]", "values": [{"measurement": "growth of A. tumefaciens strains", "setting": "[2]; [4]", "value": "inhibited growth"}]}, {"smiles": "CCNC(=O)/C=C/c1cc(OC)c(O)c(OC)c1", "note": "[ethylsinapamide]", "values": [{"measurement": "vir gene induction efficiency versus corresponding phenolic acids", "setting": "[1]", "value": "more efficient than the corresponding phenolic acids"}]}, {"smiles": "COc1cc(C=CC(=O)O)cc(OC)c1O", "note": "(stereo in doubt) [sinapinic acid]", "values": [{"measurement": "growth of A. tumefaciens strains", "setting": "[2]; [4]", "value": "inhibited growth"}]}, {"smiles": "COc1cc(C(C)=O)cc(OC)c1O", "note": "[acetosyringone]", "values": [{"measurement": "growth of A. tumefaciens strains", "setting": "[2]", "value": "inhibited the growth"}]}, {"smiles": "COc1cc(C(C)=O)cc(OC)c1O[C@H]1O[C@@H](C)[C@@H](O)[C@@H](O)[C@@H]1O", "note": "[Acetosyringonyl beta-L-fucopyranoside]", "values": [{"measurement": "vir-inducing activity", "setting": "[3]; 13 synthetic beta-glycosides compared", "value": "most active monoglycoside tested"}, {"measurement": "toxic effects", "setting": "[3]; even at high concentrations", "value": "devoid of toxic effects"}]}, {"smiles": "CCNC(=O)/C=C/c1ccc(O)c(OC)c1", "note": "[ethylferulamide]", "values": [{"measurement": "vir gene induction efficiency versus corresponding phenolic acids", "setting": "[1]", "value": "more efficient than the corresponding phenolic acids"}]}, {"smiles": "COc1cc(C=O)cc(OC)c1O[C@@H]1O[C@H](CO)[C@@H](O[C@H]2O[C@H](CO)[C@@H](O)[C@H](O)[C@H]2O)[C@H](O)[C@H]1O", "note": "[beta-maltoside of syringaldehyde]", "values": [{"measurement": "vir-inducing activity versus free phenol", "setting": "[3]; at high concentrations", "value": "higher activity than the free phenol"}]}]}
